Test results published in patent US9249115B2, “N,N1 substituted piperazines having combined antiaggregant, anticoagulant and vasodilatory activity, and method for producing same” (Vertex Closed Joint Stock Company, priority 2011, dated 2016).

Assays:
[1] = system: thrombocyte depleted plasm coagulation; assay: Activated partial thromboplastin time (APTT), anticoagulant properties; format: biochemical, human
Protocol: (§1) The study of antiaggregant and anticoagulant properties of N,N′-substituted piperazines on the sample of donor human blood. The blood was collected by donor ulnar vein punction with dry sharp needle without syringe. The administration of drugs that influence on thrombocyte function was cancelled in 7÷10 days before the experiment.
(§2) In graduated plastic centrifuge tube 1 ml of 3.8% basic trisodium citrate solution with pH=7.4 was placed. The ulnar vein was punctuated, the freely effluent blood was collected up to 10 ml mark, the mixture was instantly stirred to prevent air bubbles appearance. The collected and stabilized blood was split in two 5 ml portions in two tubes.
(§3) To obtain thrombocyte enriched plasm the stabilized blood was spinned at 1000 rpm (150 g) for 8 min at room temperature. The repeated spinning of the blood at 3200 rpm (2300 g) for 20 min at 22° C. yielded thrombocyte depleted plasm.
To study anticoagulant properties of N,N′-substituted piperazines activated partial thromboplastin time (APTT) was measured. That is the ability of N,N′-substituted piperazines to increase thrombocyte depleted plasm coagulation time compared to the ability of control sample. The set of reagents for APTT determination (Russian Scientific Research Institute of Hematology and Transfusiology Ministry of Health of Russian Federation by Technical Regulation 9398-214-01966456-99) and COAG-A-MATE® XM coagulometer (ORGANON TEKNIKA, USA) were used.
The solutions of N,N′-substituted piperazines were mixed with thrombocyte depleted plasm at 1:1 ratio, then 0.1 ml of APTT reagent was added, the mixture was incubated in the cuvette for 5 min at 37° C., then 0.1 ml of 0.277% CaCl2 solution was added. The time of coagulation (in seconds) was measured.

[2] = system: Thrombocyte aggregation induced by arachidonic acid; assay: Thrombocyte aggregation induced by arachidonic acid; format: cell-based, human; conditions: arachidonic acid 0.2 mmol
Protocol: as §1, §2, §3
The study of antiaggregant properties of N,N′-substituted piperazines with arachidonic acid (CHRONO-LOG, USA) as an inductor: to 450 l of thrombocyte plasm 50 l of N,N′-substituted piperazine solution was added, the mixture was incubated in the cuvette of CHRONO-LOG aggregometer for 15 min at 36° C. The concentration of arachidonic acid in the sample was 0.2 mmol, the concentrations of N,N′-substituted piperazines and comparison substance (aspirin) were 4÷5 mmol/L.
It was shown that N,N′-substituted piperazines have pronounced aspirin-like activity by inhibiting thrombocyte aggregation induced by arachidonic acid (table 5).

[3] = system: Collagen-induced thrombocyte aggregation; assay: Collagen-induced thrombocyte aggregation, donor human thrombocyte enriched plasm; format: cell-based; conditions: collagen inductor; for MA, %: human thrombocyte plasm
Protocol: as §1, §2, §3
(§4) The study of anticoagulant activity was done within 2 h after thrombocyte enriched plasm obtaining. The plasm was normalized to achieve thrombocyte concentration of 200-250×10^9/L by addition of thrombocyte-free plasm. The concentration of thrombocytes was measured on SOLAR AR 2110 analyzer.
(§5) Antiaggregant properties of N,N′-substituted piperazines were evaluated by their influence on thrombocyte aggregation in tests with ADP-, collagen- and ristocetin-induced aggregation. To dissolve N,N′-substituted piperazines and to dilute reagents Tris-HCl-buffer with pH=7.4 was used.
(§6) As the general characteristic of thrombocyte aggregation activity the maximum amplitude (MA) of aggregation was taken on. That is the peak value of transmittance coefficient of the sample after aggregation agent introduction expressed in % relative to the transmittance of thrombocyte-free plasm. The response was registered on ascending linear segment of aggregation curve for 16 s.
(§7) The measurements were done using 4-channel CHRONO-LOG 490-4D analyzer (CHRONO-LOG, USA). The temperature in the cell was 37° C., the spinning speed of magnetic stirrer was 1200 rpm.
(§8) In a cuvette 0.5 ml of N,N′-substituted piperazine solution was placed, then 0.4 ml of normalized thrombocyte plasm was added. The mixture was stirred and incubated at 37° C. for 5 min. The cuvette was placed in aggregometer, then 0.05 ml of aggregation inductor solution was added (ADP or collagen or ristocetin). Thrombocyte aggregation was measured for 3 min.
In collagen-induced thrombocyte aggregation test CHRONO-PAR COLLAGEN reagent (CHRONO-LOG, USA) was diluted with buffer solution until collagen concentration reached 10 µg/ml.

[4] = system: ADP-induced thrombocyte aggregation; assay: ADP-induced thrombocyte aggregation, donor human thrombocyte enriched plasm; format: cell-based; conditions: ADP inductor; for MA, %: human thrombocyte plasm
Protocol: as §1, §2, §3, §4, §5, §6, §7, §8
ADP-induced reversible thrombocyte aggregation test utilized CHRONO-PAR ADP reagent (CHRONO-LOG, USA) with 10 mol concentration. Primary (reversible) thrombocyte aggregation was evaluated by the response on addition of ADP threshold dose (ADP concentration is 1 mol) to plasm.

[5] = system: Ristocetin-induced thrombocyte aggregation; assay: Ristocetin-induced thrombocyte aggregation, donor human thrombocyte enriched plasm; format: cell-based; conditions: ristocetin inductor; for MA (60 c), %: amplitude at 60 s
Protocol: as §1, §2, §3, §4, §5, §6, §7, §8
To study ristocetin-induced thrombocyte aggregation CHRONO-PAR RISTOCETIN reagent (CHRONO-LOG, USA) was diluted with buffer solution until ristocetin concentration reached 12 mg/ml. Thrombocyte aggregation amplitude was measured in 60 s after the beginning of the reaction.

[6] = 1.7 mmol/L, thrombocyte depleted plasm
[7] = 2.5 mmol/L, thrombocyte depleted plasm
[8] = 4.1 mmol/L, thrombocyte depleted plasm
[9] = 8.3 mmol/L, thrombocyte depleted plasm
[10] = Homo sapiens, 0.5 mmol/L, read-out: (MA0-MAx): MA0 * 100%
[11] = Homo sapiens, 1.25 mmol/L, read-out: (MA0-MAx): MA0 * 100%
[12] = Homo sapiens, 2.5 mmol/L, read-out: (MA0-MAx): MA0 * 100%
[13] = Homo sapiens, 5.0 mmol/L, read-out: (MA0-MAx): MA0 * 100%
[14] = Homo sapiens, 0.2 mmol/L, read-out: (MA0-MAx): MA0 * 100%
[15] = Homo sapiens, 2.50 mmol/L, read-out: (MA0-MAx): MA0 * 100%

| Compound | (APTTx-APTT0): APTT0 * 100% ([1]; 1.7 mmol/L) | APTT [1, 6] | (APTTx-APTT0): APTT0 * 100% ([1]; 2.5 mmol/L) | (APTTx-APTT0): APTT0 * 100% ([1]; 4.1 mmol/L) | APTT [1, 8] | APTT [1, 9] | MA, % ([3]; 0.5 mmol/L) | MA, % ([3]; 1.25 mmol/L) | MA, % ([3]; 2.5 mmol/L) | inhibition at 500 µM [3, 10] | inhibition at 1250 µM [3, 11] | inhibition at 2500 µM [3, 12] | MA, % ([4]; 0.2 mmol/L) | MA, % ([4]; 0.5 mmol/L) | MA, % ([4]; 1.25 mmol/L) | MA, % ([4]; 2.50 mmol/L) | inhibition at 200 µM [4, 14] | inhibition at 500 µM [4, 10] | inhibition at 1250 µM [4, 11] | inhibition at 2500 µM [4, 15] | also measured |
| --- | --- | --- | --- | --- | --- | --- | --- | --- | --- | --- | --- | --- | --- | --- | --- | --- | --- | --- | --- | --- | --- |
| COc1cc(C(=O)N2CCN(C(=N)N)CC2)cc(OC)c1OC.O=C(O)/C=C/C(=O)O [Example 1, 4-(3,4,5-trimethoxybenzoyl)piperazine-1-carboximidamide fumarate hemihydrate] | 12.2% | 50.4 ± 7.0 s | 40.1% | 56.8% | 70.4 ± 5.2 s | 139.1 ± 9.5 s | 70.0 ± 5.1% | 60.7 ± 7.7% | 18.4 ± 3.1% | 5.4% | 18.8% | 75.1% | 6.4 ± 1.1% | 5.0 ± 1.1% | 4.1 ± 0.7% | 3.0 ± 12.1% | 53.3% | 63.5% | 70.1% | 78.1% | APTT [1, 7]: 63.3 ± 5.7 s; (APTTx-APTT0): APTT0 * 100% ([1]; 8.3 mmol/L): 209.8%; MA ([2]; 4.5 mmol/L): 33; Max. rate for 16 sec ([2]; 4.5 mmol/L): 20; inhibition at 4500 µM ([2]; Homo sapiens, 4.5 mmol/L): 60%; MA, % ([3]; 5.0 mmol/L): 2.1 ± 0.4%; inhibition at 5000 µM [3, 13]: 97.2%; MA, % ([4]; 5.0 mmol/L): 1.3 ± 0.5%; inhibition at 5000 µM [4, 13]: 90.5%; (MAx-MA0): MA0 * 100% ([5]; 0.5 mmol/L): 1.8%; MA (60 c), % ([5]; 0.5 mmol/L): 70.0 ± 10.5%; (MAx-MA0): MA0 * 100% (Ozagrel: (MA0-MAx): MA0 * 100%) ([5]; 1.25 mmol/L): 12.9%; MA (60 c), % ([5]; 1.25 mmol/L): 62.1 ± 7.7%; (MAx-MA0): MA0 * 100% (Ozagrel: (MA0-MAx): MA0 * 100%) ([5]; 2.5 mmol/L): 22.7%; MA (60 c), % ([5]; 2.5 mmol/L): 55.1 ± 11.1%; (MAx-MA0): MA0 * 100% (Ozagrel: (MA0-MAx): MA0 * 100%) ([5]; 5.0 mmol/L): 53.3%; MA (60 c), % ([5]; 5.0 mmol/L): 33.3 ± 4.5% |
| CCOc1ccc(CN2CCN(C(=N)N)CC2)c(OCC)c1OCC.Cl [Example 5, 4-(2,3,4-triethoxybenzyl)piperazine-1-carboximidamide hydrochloride] | −4.9% | 53.7 ± 7.0 s | 22.7% | 35.6% | 76.5 ± 9.8 s | >150 s | 74.5 ± 4.3% | 63.7 ± 2.2% | 23.9 ± 0.3% | 5.3% | 19.1% | 69.8% | 14.9 ± 2.0% | 11.5 ± 1.3% | 5.3 ± 2.2% | 1.9 ± 0.4% | 2.7% | 24.8% | 65.4% | 87.8% | APTT, sec [1, 7]: 69.2 ± 5.9- sec; (APTTx-APTT0): APTT0 * 100% ([1]; 6.3 mmol/L): 75.4%; APTT ([1]; 6.3 mmol/L, thrombocyte depleted plasm): 98.9 ± 9.9 s; MA ([2]; 4.0 mmol/L): 2; Max. rate for 16 sec ([2]; 4.0 mmol/L): 1; inhibition at 4000 µM ([2]; Homo sapiens, 4.0 mmol/L): 100% |
